ChEMBL document CHEMBL3875216, “Synthesis of antimicrobial glucosamides as bacterial quorum sensing mechanism inhibitors” (Bioorg Med Chem, 2017)

Legend:
[1] = system: Pseudomonas aeruginosa; test: Inhibition of LasR-dependent quorum sensing activity in Pseudomonas aeruginosa MH602 harboring GFP-fused […] LasB promoter assessed as inhibition of 3-oxo-dodecanoyl HSL-induced GFP expression at 2 mM measured after 8 hrs by fluorescence assay relative to control
[2] = system: Pseudomonas aeruginosa; test: Inhibition of LasR-dependent quorum sensing activity in Pseudomonas aeruginosa MH602 harboring GFP-fused […] LasB promoter assessed as inhibition of 3-oxo-dodecanoyl HSL-induced GFP expression at 500 uM measured after 8 hrs by fluorescence assay relative to control
[3] = system: Escherichia coli; test: Inhibition of LuxR-dependent quorum sensing activity in Escherichia coli MT102 harboring pJBA132 assessed as inhibition of OHHL-induced GFP expression at 2 mM measured after 8 hrs by fluorescence assay relative to control
[4] = system: Escherichia coli; test: Inhibition of LuxR-dependent quorum sensing activity in Escherichia coli MT102 harboring pJBA132 assessed as inhibition of OHHL-induced GFP expression at 2 mM measured after 24 hrs by fluorescence assay relative to control
[5] = system: Escherichia coli; test: Inhibition of LuxR-dependent quorum sensing activity in Escherichia coli MT102 harboring pJBA132 assessed as inhibition of OHHL-induced GFP expression at 1 mM measured after 8 hrs by fluorescence assay relative to control
[6] = system: Escherichia coli; test: Inhibition of LuxR-dependent quorum sensing activity in Escherichia coli MT102 harboring pJBA132 assessed as inhibition of OHHL-induced GFP expression at 1 mM measured after 24 hrs by fluorescence assay relative to control
[7] = system: Pseudomonas aeruginosa; test: Growth inhibition of Pseudomonas aeruginosa MH602 at 2 mM after 8 hrs relative to control; conditions: MH602, 8 h, read-out: GI
[8] = system: Pseudomonas aeruginosa; test: Growth inhibition of Pseudomonas aeruginosa MH602 at 2 mM after 24 hrs relative to control; conditions: MH602, 24 h, read-out: GI
[9] = system: Pseudomonas aeruginosa; test: Growth inhibition of Pseudomonas aeruginosa MH602 at 1 mM after 8 hrs relative to control; conditions: MH602, 8 h, read-out: GI
[10] = system: Pseudomonas aeruginosa; test: Growth inhibition of Pseudomonas aeruginosa MH602 at 1 mM after 24 hrs relative to control; conditions: MH602, 24 h, read-out: GI
[11] = system: Pseudomonas aeruginosa; test: Growth inhibition of Pseudomonas aeruginosa MH602 at 500 uM after 8 hrs relative to control; conditions: MH602, 8 h, read-out: GI
[12] = system: Pseudomonas aeruginosa; test: Growth inhibition of Pseudomonas aeruginosa MH602 at 500 uM after 24 hrs relative to control; conditions: MH602, 24 h, read-out: GI
[13] = system: Escherichia coli; test: Growth inhibition of Escherichia coli MT102 at 2 mM after 8 hrs relative to control; conditions: MT102, 8 h, read-out: GI
[14] = system: Escherichia coli; test: Growth inhibition of Escherichia coli MT102 at 2 mM after 24 hrs relative to control; conditions: MT102, 24 h, read-out: GI
[15] = system: Escherichia coli; test: Growth inhibition of Escherichia coli MT102 at 1 mM after 8 hrs relative to control; conditions: MT102, 8 h, read-out: GI
[16] = system: Escherichia coli; test: Growth inhibition of Escherichia coli MT102 at 1 mM after 24 hrs relative to control; conditions: MT102, 24 h, read-out: GI
[17] = system: Escherichia coli; test: Growth inhibition of Escherichia coli MT102 at 500 uM after 8 hrs relative to control; conditions: MT102, 8 h, read-out: GI
[18] = system: Escherichia coli; test: Growth inhibition of Escherichia coli MT102 at 500 uM after 24 hrs relative to control; conditions: MT102, 24 h, read-out: GI
[19] = system: Pseudomonas aeruginosa; test: Growth inhibition of Pseudomonas aeruginosa PA14 at 2 mM after 24 hrs relative to control; conditions: 2000 µM
[20] = system: Pseudomonas aeruginosa; test: Inhibition of LasR-dependent quorum sensing activity in Pseudomonas aeruginosa MH602 harboring GFP-fused […] LasB promoter assessed as inhibition of 3-oxo-dodecanoyl HSL-induced GFP expression at 1 mM measured after 8 hrs by fluorescence assay relative to control
[21] = system: Pseudomonas aeruginosa PA14; test: Inhibition of quorum sensing-regulated pyocyanin production in Pseudomonas aeruginosa PA14 at 2 mM after 24 hrs relative to control
[22] = system: Pseudomonas aeruginosa PA14; test: Inhibition of quorum sensing-regulated biofilm formation in Pseudomonas aeruginosa PA14 at 2 mM after overnight incubation by crystal violet staining based assay relative to control
[23] = system: Pseudomonas aeruginosa; test: Inhibition of LasR-dependent quorum sensing activity in Pseudomonas aeruginosa MH602 harboring GFP-fused […] LasB promoter assessed as inhibition of 3-oxo-dodecanoyl HSL-induced GFP expression at 2 mM measured after 24 hrs by fluorescence assay relative to control
[24] = system: Escherichia coli; test: Inhibition of LuxR-dependent quorum sensing activity in Escherichia coli MT102 harboring pJBA132 assessed as inhibition of OHHL-induced GFP expression at 500 uM measured after 8 hrs by fluorescence assay relative to control

SMILES | inhibition [1] [%] | inhibition [2] [%] | inhibition [3] [%] | inhibition [4] [%] | inhibition [5] [%] | inhibition [6] [%] | inhibition at 2000 µM [7] [%] | inhibition at 2000 µM [8] [%] | inhibition at 1000 µM [9] [%] | inhibition at 1000 µM [10] [%] | inhibition at 500 µM [11] [%] | inhibition at 500 µM [12] [%] | inhibition at 2000 µM [13] [%] | inhibition at 2000 µM [14] [%] | inhibition at 1000 µM [15] [%] | inhibition at 1000 µM [16] [%] | inhibition at 500 µM [17] [%] | inhibition at 500 µM [18] [%] | growth inhibition (GI) [19] | inhibition [20] [%] | also measured
CC(=O)OC[C@H]1O[C@@H](OC(C)=O)[C@H](NC(=O)CC(=O)CCCc2ccccc2)[C@@H](OC(C)=O)[C@@H]1OC(C)=O | 24.4 | 6.5 | 12.8 | 34.2 | 26 | 43.4 | 24.8 | 0 | 11.7 | 19.6 | 0 | 0 | 21.8 | 5.1 | 2.6 | 4.9 | 3.3 | 0 | Non-Toxic |  | 
CCCCCCCCCC(=O)N[C@@H]1[C@@H](O)[C@H](O)[C@@H](CO)O[C@H]1O | 11.5 | 15.7 |  | 23.3 | 16.3 | 8.5 | 17.6 | 0 | 20.4 | 30.2 | 7.8 | 16.4 | 38.2 | 12.3 | 45 | 20 | 0 | 15.3 | Non-Toxic | 15.6 | inhibition [21]: 13.3%
CCCCCCCCCCCC(=O)N[C@@H]1[C@@H](O)[C@H](O)[C@@H](CO)O[C@H]1O |  | 12.6 |  |  | 4.6 |  | 32 | 28.7 | 30.9 | 37.2 | 25.5 | 19.4 | 28.6 | 11.7 | 46.2 | 14.3 | 23.2 | 14.3 | Non-Toxic |  | inhibition [21]: 20.7%; inhibition [22]: 2.3%
CC(=O)OC[C@H]1O[C@@H](OC(C)=O)[C@H](NC(=O)CCCc2ccccc2)[C@@H](OC(C)=O)[C@@H]1OC(C)=O | 5.2 | 7.3 |  | 43.8 | 18.1 | 21.1 | 37.2 | 3.3 | 30.9 | 25.9 | 7.3 | 0 | 93.2 | 26.7 | 64.7 | 19.7 | 15.1 | 5.2 | Non-Toxic | 4.9 | 
CC(=O)OC[C@H]1O[C@@H](OC(C)=O)[C@H](NC(=O)CCc2c[nH]c3ccccc23)[C@@H](OC(C)=O)[C@@H]1OC(C)=O | 53.8 | 9.3 | 65.5 | 28.5 | 2.3 |  | 0 | 0 | 0 | 3.5 | 2.3 | 3.5 | 0 | 0 | 0 | 0 | 0 | 2.6 | Non-Toxic | 32.6 | inhibition [23]: 7.4%; inhibition [24]: 13.5%
CCCCCCCC(=O)N[C@@H]1[C@@H](O)[C@H](O)[C@@H](CO)O[C@H]1O | 23.2 | 17.5 | 16.7 | 45.7 |  | 48.2 | 21.3 | 65.4 | 0 | 0 | 3.4 | 0 | 30.7 | 0 | 10.6 | 4.4 | 0 | 0 | Non-Toxic | 12.2 | inhibition [23]: 21.3%; inhibition [21]: 11.7%; inhibition [22]: 14%
CCCCCCCCCCCC(=O)N[C@H]1[C@H](OC(C)=O)O[C@H](COC(C)=O)[C@@H](OC(C)=O)[C@@H]1OC(C)=O |  | 12.8 | 1.8 | 59.7 |  | 31.5 | 1.2 | 0 | 0 | 0 | 0 | 0 | 21.8 | 15 | 0 | 13.4 | 0 | 12.2 | Non-Toxic |  | inhibition [23]: 35.3%; inhibition [21]: 19.7%; inhibition [22]: 3.5%
CCCCCC(=O)N[C@@H]1[C@@H](O)[C@H](O)[C@@H](CO)O[C@H]1O | 10 | 12.9 |  | 42.7 | 10.7 | 15.8 | 19 | 3.1 | 10.5 | 19.2 | 7.1 | 0 | 24.6 | 0 | 11.7 | 8.4 | 0 | 0 | Non-Toxic | 13.1 | inhibition [22]: 9%
CCCCCCCC(=O)N[C@H]1[C@H](OC(C)=O)O[C@H](COC(C)=O)[C@@H](OC(C)=O)[C@@H]1OC(C)=O |  | 14.4 | 36 | 14 | 2.3 |  | 33.1 | 2.8 | 2.5 | 0 | 2.7 | 0 | 14.9 | 21.4 | 0 | 9.6 | 23.7 | 6.2 | Non-Toxic | 8.5 | inhibition [23]: 26.1%; inhibition [22]: 21.1%
CCCC(=O)CC(=O)N[C@H]1[C@H](OC(C)=O)O[C@H](COC(C)=O)[C@@H](OC(C)=O)[C@@H]1OC(C)=O | 64.5 | 5.3 | 88.1 | 40.9 | 85.4 | 20.7 | 74.9 | 4.6 | 66.8 | 25.9 | 5.7 | 6.3 | 50.3 | 65.1 | 44.1 | 49.2 | 22.2 | 12.7 | Non-Toxic | 59.6 | inhibition [21]: 3.5%; inhibition [22]: 38.1%
